Source: ChEMBL document CHEMBL1201862, “PubChem BioAssay data set” (2004)
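Dose response: 5 concentrations. Exposure: 48 h. Format: 96-well plates. Endpoint: linear interpolation; highest concentration if not reached. The concentration for 50% growth inhibition is given as GI50.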 Calls of active or inactive are those of the source. No stated cut-off is given here; in the data, active = GI50 up to about 1.1 µM and inactive = higher.

Assays:
Assay in all cases: inhibition of tumour cell growth, NCI panel, 48 h
[1] = test system: UACC-257
[2] = test system: OVCAR-5
[3] = test system: NCI-H23
[4] = test system: HT-29
[5] = test system: NCI-H226
[6] = test system: MDA-MB-435
[7] = test system: SK-MEL-2
[8] = test system: MDA-N
[9] = test system: CAKI-1
[10] = test system: SK-OV-3
[11] = test system: PC-3
[12] = test system: IGROV-1
[13] = test system: ACHN
[14] = test system: MDA-MB-231
[15] = test system: KM12
[16] = test system: SF-295
[17] = test system: OVCAR-4
[18] = test system: RPMI-8226
[19] = test system: 786-0
[20] = test system: HL-60
[21] = test system: TK-10
[22] = test system: HOP-92
[23] = test system: MCF7
[24] = test system: RXF 393
[25] = test system: NCI/ADR-RES
[26] = test system: NCI-H522
[27] = test system: Hs-578T
[28] = test system: DU-145
[29] = test system: COLO 205
[30] = test system: UACC-62
[31] = test system: SK-MEL-28
[32] = test system: A498
[33] = test system: MOLT-4
[34] = test system: SN12C
[35] = test system: HCC 2998
[36] = test system: EKVX
[37] = test system: SK-MEL-5
[38] = test system: T47D
[39] = test system: OVCAR-8
[40] = test system: SNB-19
[41] = test system: M14
[42] = test system: SF-268
[43] = test system: A549
[44] = test system: Malme-3M
[45] = test system: U-251
[46] = test system: NCI-H460
[47] = test system: SNB-75
[48] = test system: SW-620
[49] = test system: BT-549
[50] = test system: HOP-62
[51] = test system: CCRF-CEM
[52] = test system: OVCAR-3
[53] = test system: HCT-15
[54] = test system: UO-31
[55] = test system: HCT-116
[56] = test system: K562
[57] = test system: LOX IMVI
[58] = test system: SF-539
[59] = test system: SR

Measured: GI50

C[C@]12CC[C@@H]3c4ccc(O)cc4CC[C@H]3[C@@H]1C/C(=C\c1ccncc1)[C@@H]2O
inactive: [1] 14.5 µM | [2] 28.6 µM | [3] 3.1 µM | [4] 15.1 µM | [5] 10.7 µM | [6] 2.92 µM | [7] 11.4 µM | [8] 3.99 µM | [9] 12.8 µM | [10] 26.2 µM | [11] 10.4 µM | [12] 7.43 µM | [13] 11.2 µM | [14] 10.1 µM | [15] 5.98 µM | [16] 4.29 µM | [17] 14.8 µM | [18] 3.13 µM | [19] 14.3 µM | [20] 8.51 µM | [21] 22.9 µM | [22] 5.32 µM | [23] 10.1 µM | [24] 2.5 µM | [25] 5.56 µM | [26] 3.73 µM | [27] 4.42 µM | [28] 19.1 µM | [29] 5.18 µM | [30] 10.8 µM | [31] 22.3 µM | [32] 5.78 µM | [33] 3.6 µM | [34] 26.9 µM | [35] 7.96 µM | [36] 18.5 µM | [37] 4.18 µM | [38] 3.55 µM | [39] 11.4 µM | [40] 23.4 µM | [41] 20.6 µM | [42] 8.55 µM | [43] 7.36 µM | [44] 5.04 µM | [45] 11.8 µM | [46] 6.32 µM | [47] 2.98 µM | [48] 9.27 µM | [49] 3.86 µM | [50] 14.8 µM | [51] 9.75 µM | [52] 11.5 µM | [54] 21.5 µM | [55] 10.9 µM
4.22 µM: [53]

C[N+](C)(C)CCCSc1nc2ccccc2[nH]1
> 100 µM: [53]
inactive: [1] 30.1 µM | [2] 89.7 µM | [3] > 100 µM | [4] > 100 µM | [5] > 100 µM | [6] > 100 µM | [7] > 100 µM | [8] > 100 µM | [9] > 100 µM | [10] > 100 µM | [11] > 100 µM | [12] > 100 µM | [13] > 100 µM | [14] > 100 µM | [15] > 100 µM | [16] > 100 µM | [17] > 100 µM | [18] > 100 µM | [19] > 100 µM | [20] > 100 µM | [21] > 100 µM | [22] > 100 µM | [56] > 100 µM | [23] > 100 µM | [24] > 100 µM | [25] > 100 µM | [26] > 100 µM | [27] > 100 µM | [28] > 100 µM | [29] > 100 µM | [30] > 100 µM | [31] > 100 µM | [32] > 100 µM | [33] > 100 µM | [34] > 100 µM | [35] > 100 µM | [36] > 100 µM | [37] > 100 µM | [38] > 100 µM | [39] > 100 µM | [40] > 100 µM | [41] > 100 µM | [57] > 100 µM | [42] > 100 µM | [43] > 100 µM | [44] > 100 µM | [45] > 100 µM | [46] > 100 µM | [48] > 100 µM | [49] > 100 µM | [50] > 100 µM | [51] > 100 µM | [52] > 100 µM | [54] > 100 µM | [55] > 100 µM

CNC(=O)CN(C)C(=O)CCC(=O)N(C)C
> 100 µM: [53]
inactive: [1] > 100 µM | [2] > 100 µM | [3] > 100 µM | [4] > 100 µM | [5] > 100 µM | [6] > 100 µM | [7] > 100 µM | [8] > 100 µM | [9] > 100 µM | [10] > 100 µM | [11] > 100 µM | [12] > 100 µM | [13] > 100 µM | [14] > 100 µM | [15] > 100 µM | [16] > 100 µM | [18] > 100 µM | [19] > 100 µM | [20] > 100 µM | [21] > 100 µM | [22] > 100 µM | [56] > 100 µM | [23] > 100 µM | [58] > 100 µM | [25] > 100 µM | [26] > 100 µM | [27] > 100 µM | [28] > 100 µM | [29] > 100 µM | [30] > 100 µM | [31] > 100 µM | [32] > 100 µM | [33] > 100 µM | [34] > 100 µM | [35] > 100 µM | [36] > 100 µM | [37] > 100 µM | [38] > 100 µM | [39] > 100 µM | [40] > 100 µM | [41] > 100 µM | [57] > 100 µM | [42] > 100 µM | [43] > 100 µM | [44] > 100 µM | [45] > 100 µM | [46] > 100 µM | [47] > 100 µM | [48] > 100 µM | [49] > 100 µM | [50] > 100 µM | [51] > 100 µM | [52] > 100 µM | [54] > 100 µM | [55] > 100 µM

Clc1ccc(OCc2nnc3sc(-c4ccc(-c5ccc(Cl)cc5Cl)o4)nn23)cc1
inactive: [1] > 100 µM | [2] > 100 µM | [3] > 100 µM | [4] > 100 µM | [5] > 100 µM | [6] > 100 µM | [7] 50.6 µM | [8] > 100 µM | [9] > 100 µM | [10] > 100 µM | [11] > 100 µM | [12] > 100 µM | [13] > 100 µM | [14] > 100 µM | [15] > 100 µM | [16] 89.1 µM | [17] > 100 µM | [18] > 100 µM | [19] > 100 µM | [20] > 100 µM | [21] > 100 µM | [22] 36.9 µM | [56] > 100 µM | [24] 16.4 µM | [25] > 100 µM | [26] > 100 µM | [27] > 100 µM | [28] > 100 µM | [29] > 100 µM | [31] > 100 µM | [59] > 100 µM | [32] > 100 µM | [33] > 100 µM | [34] > 100 µM | [36] > 100 µM | [37] > 100 µM | [38] > 100 µM | [39] > 100 µM | [40] > 100 µM | [41] > 100 µM | [57] > 100 µM | [42] > 100 µM | [43] > 100 µM | [44] > 100 µM | [45] 84.3 µM | [46] > 100 µM | [47] 7.85 µM | [48] > 100 µM | [49] > 100 µM | [50] > 100 µM | [51] > 100 µM | [52] > 100 µM | [54] > 100 µM | [55] > 100 µM
> 100 µM: [53]

COc1c(OC)c(O)c2c(=O)c(OC)c(-c3ccc4c(c3)OCO4)oc2c1O
> 100 µM: [53]
inactive: [1] 67 µM | [2] > 100 µM | [3] > 100 µM | [4] 36.1 µM | [5] > 100 µM | [6] > 100 µM | [7] > 100 µM | [8] > 100 µM | [9] > 100 µM | [10] > 100 µM | [11] > 100 µM | [12] > 100 µM | [13] > 100 µM | [14] > 100 µM | [15] > 100 µM | [16] 77.4 µM | [17] > 100 µM | [19] > 100 µM | [20] 19.5 µM | [21] > 100 µM | [22] 1.39 µM | [56] 85.3 µM | [23] > 100 µM | [58] > 100 µM | [24] 91.4 µM | [25] > 100 µM | [26] > 100 µM | [27] > 100 µM | [28] > 100 µM | [29] > 100 µM | [30] > 100 µM | [31] > 100 µM | [32] > 100 µM | [33] 40.1 µM | [34] > 100 µM | [35] > 100 µM | [36] > 100 µM | [37] 38.2 µM | [38] 24.5 µM | [39] > 100 µM | [40] > 100 µM | [41] > 100 µM | [57] > 100 µM | [42] > 100 µM | [43] > 100 µM | [44] > 100 µM | [45] > 100 µM | [46] > 100 µM | [47] > 100 µM | [48] > 100 µM | [49] > 100 µM | [50] > 100 µM | [51] 55.5 µM | [52] > 100 µM | [54] > 100 µM | [55] 38.6 µM
